pEC50, pIC50: −log10 of the molar value. “Also recorded” adds a separate entry of the source. Like-named read-outs stand apart in the source and are kept apart here.
How the values were obtained:
subcutaneous KB tumor [1] = assay: In vivo PDT efficacy on growth of subcutaneous KB tumor xenograft in nude mice
Protocol: The growth of the tumor was monitored (images were taken) and tumor volume was measured using caliper.
In the following examples, the in vivo efficacy of the compounds is determined using KB tumor cell xenograft in nude mice. In these studies, KB cells were implanted subcutaneously and growth of the tumors was monitored. […] Moreover, once tumors grow to […], the compounds were injected via tail vein. […] In vivo efficacy of BPheid-a was evaluated by monitoring reduction of tumor volume.
KB cells that overexpressed folate receptor were implanted subcutaneously into female nude mice and allowed to grow to ˜50 mm^3 prior to initiation of treatment with 50 nmol of BPheid-a (1). […] In vivo efficacy of BPheid-a was evaluated by monitoring reduction of tumor volume.

[2] = Activation wavelength of non-targeted PDT agents; format: physicochemical; details: Table 1
KB cells [3] = system: KB cells
subcutaneous KB tumor [4] = assay: In vivo PDT efficacy on growth of subcutaneous KB tumor xenograft in nude mice; details: 25 nmol dose, laser 75 mW/cm^2, 137 J/cm^2, 38 min, 3 h after injection
[5] = system: folate receptor positive cancer; details: cited from earlier work
[6] = rats; cited from earlier work
[7] = dogs; cited from earlier work
KB tumors = assay: Time dependent whole body fluorescence imaging of KB tumor bearing nude mice (IVIS imager); format: in vivo
Source text: FIG. 3 depicts an overlay of half body (top raw) and whole body (bottom raw) fluorescence image over white light images after adjusting the threshold. KB tumor bearing mice injected with 10 nmol of BPheid-a (1) and image with IVIS imager (ex=745 nm, em=ICG, exposure time=1 s) at different time intervals.
FIG. 13 depicts an overlay of whole body fluorescence image over white light images after adjusting the threshold. KB tumor bearing mice injected with 10 nmol of 65a and image with IVIS imager (ex=745 nm, em=ICG, exposure time=1 s) at different time intervals.
In the following examples, the in vivo efficacy of the compounds is determined using KB tumor cell xenograft in nude mice. In these studies, KB cells were implanted subcutaneously and growth of the tumors was monitored. For time dependent whole body imaging, once tumors become 250-350 mm^3, the compounds were injected via tail vein and accumulation of the PS in the tumor was monitored (over 48 hours) using fluorescence imaging using IVIS imager. Moreover, once tumors grow to […], the compounds were injected via tail vein. Three hours (3 h) after injecting with the compound, tumor was treated with laser beam (75 mW/cm^2, 137 J/cm^2, exposure diameter=7.5-8 mm) for […]. In vivo efficacy of BPheid-a was evaluated by monitoring reduction of tumor volume.

KB cells [8] = assay: cells; details: Homo sapiens
[9] = 50 nmol dose, laser 75 mW/cm^2, 137 J/cm^2, 38 min, 3 h after injection
[10] = Table 1, non-targeted PDT agents, free drugs in DMSO, 2 h incubation, laser 6 mW/cm^2, 12 J/cm^2, 32 min, then 24 h
[11] = 10 nmol injected, KB tumor bearing nude mice

CC[C@H]1c2cc3[nH]c4c(c3C)C(=O)C(C(=O)OC)c4c3nc(cc4[nH]c(cc(n2)[C@@H]1C)c(C(C)=O)c4C)[C@@H](C)[C@@H]3CCC(=O)NCCSSC[C@H](NC(=O)[C@H](CC(=O)NCCS(=O)(=O)O)NC(=O)CC[C@H](NC(=O)c1ccc(NCc2cnc3nc(N)[nH]c(=O)c3n2)cc1)C(=O)O)C(=O)O (stereo partly drawn) [Compound 64]
Effect on growth of subcutaneous KB tumor, in words (subcutaneous KB tumor [1]; [9]): completely cure the tumor and showed tumor regression for 2 weeks

CC[C@H]1c2cc3[n-]c4c(c3C)C(=O)[C@H](C(=O)OC)c4c3nc(cc4[n-]c(cc(n2)[C@@H]1C)c(C(C)=O)c4C)[C@@H](C)[C@@H]3CCC(=O)O.[Pd+2] [Compound 2, Tookad, reference compound]
Activation Wavelength [2]: 760 nm
pEC50 (KB cells [3]; [10]): 4.98

tookad soluble [Compound 4, reference compound]
Activation Wavelength [2]: 750 nm
pEC50 (KB cells [3]; [10]): 5.11

CC[C@H]1c2cc3[nH]c4c(c3C)C(=O)C(C(=O)OC)c4c3nc(cc4[nH]c(cc(n2)[C@@H]1C)c(C(C)=O)c4C)[C@@H](C)[C@@H]3CCC(=O)NCCCC(C(=O)NCCSSC[C@H](NC(=O)[C@H](CC(=O)NCCS(=O)(=O)O)NC(=O)CC[C@H](NC(=O)c1ccc(NCc2cnc3nc(N)[nH]c(=O)c3n2)cc1)C(=O)O)C(=O)O)[N+](C)(C)C (stereo partly drawn) [Compound 100]
Effect on growth of subcutaneous KB tumor, in words (subcutaneous KB tumor [1]; [9]): completely cure the tumor and showed tumor regression for 2 weeks; also recorded: completely cured with no recurrence during the monitored time (2 weeks)
pEC50 (KB cells [3]; 2 h): 7.89

CC[C@H]1c2cc3[nH]c4c(c3C)C(=O)C(C(=O)OC)c4c3nc(cc4[nH]c(cc(n2)[C@@H]1C)c(C(C)=O)c4C)[C@@H](C)[C@@H]3CCC(=O)NNC(=O)OCCSSC[C@H](NC(=O)[C@H](CC(=O)NCCS(=O)(=O)O)NC(=O)CC[C@H](NC(=O)c1ccc(NCc2cnc3nc(N)[nH]c(=O)c3n2)cc1)C(=O)O)C(=O)O (stereo partly drawn) [Compound 65a]
Effect on growth of subcutaneous KB tumor, in words (subcutaneous KB tumor [1]; [9]): completely cured with no recurrence during the monitored time (13 weeks)
Effect on growth of subcutaneous KB tumor, in words (subcutaneous KB tumor [1]; 50 and 25 nmol doses, laser 38 min 3 h after injection): tumor regression at both doses (50 and 25 nmol)
Effect on growth of subcutaneous KB tumor, in words (subcutaneous KB tumor [4]): completely cured with no recurrence during the monitored time (4 weeks)

CC[C@H]1c2cc3[nH]c4c(c3C)C(=O)C(C(=O)OC)c4c3nc(cc4[nH]c(cc(n2)[C@@H]1C)c(C(C)=O)c4C)[C@@H](C)[C@@H]3CCC(=O)NNC(=O)OCCSSC[C@H](NC(=O)CCOCCOCCOCCOCCOCCOCCNC(=O)CC[C@H](NC(=O)c1ccc(NCc2cnc3nc(N)[nH]c(=O)c3n2)cc1)C(=O)O)C(=O)O (single isomer, unassigned) [Compound 76b]
Effect on growth of subcutaneous KB tumor, in words (subcutaneous KB tumor [1]; [9]): less active in mice as compared to 76a and 76c; also recorded: completely cured with no recurrence during the monitored time (3 weeks)
pEC50 (KB cells [3]; 2 h): 6.49

OTL38
Malignant lesions removed with the aid of OTL38 versus without it ([5]; clinical trial, image-guided surgery): approximately 5 ×
Tumor cells removed by OTL38-guided resection ([5]; image-guided resection): approximately 95%
Toxicity [6]: no toxicity
Toxicity [7]: no toxicity

CC[C@H]1c2cc3[nH]c4c(c3C)C(=O)[C@H](C(=O)OC)c4c3nc(cc4[nH]c(cc(n2)[C@@H]1C)c(C(C)=O)c4C)[C@@H](C)[C@@H]3CCC(=O)O [Compound 1, Bacteriopheophorbide-a, reference compound]
Fluorescence in the tumor (level or comparison with other conjugates) (KB tumors; [11]): very low
Tumor specificity / uptake in other tissues (whole body images) (KB tumors; [11]): nonspecific uptake of BPheid-a in the skin
Time to localize / accumulate in the tumor after administration (KB tumors; 10 nmol injected, KB tumor bearing nude mice, fluorescence imaging): ~24 h
Effect on growth of subcutaneous KB tumor, in words (subcutaneous KB tumor [1]; [9]): some effect
KB tumor doubling time after treatment (subcutaneous KB tumor [1]; 50 nmol, laser 75 mW/cm^2, 137 J/cm^2, 38 min, 3 h after injection): < 1 week
Tumor volume reached by the end of the two week treatment period (subcutaneous KB tumor [1]; 50 nmol, laser 38 min 3 h after injection): > 600 mm^3
Activation Wavelength [2]: 750 nm
pEC50 (KB cells [3]; [10]): 6.13
pEC50 (KB cells [3]; Table 2, mitochondrial-targeted modified PDT agents, free drugs in DMSO, 2 h incubation, laser 32 min, then 24 h): 6.13
pIC50 (KB cells [3]; Table 3, nucleus-targeted modified PDT agents, free drugs in DMSO, 2 h incubation, laser 32 min, then 24 h): 6.13
pEC50 (KB cells [3]; Table 7, folate-targeted releasable BPheid-a conjugates, different soluble linkers): 6.13
pEC50 (KB cells [3]; Table 9, folate conjugates releasing cationic BPheid-a analogues): 6.13
pEC50 (KB cells [3]; Table 11, folate conjugates releasing anionic BPheid-a analogues): 6.13

Visudyne [Compound 5, reference compound]
Activation Wavelength [2]: 689 nm
pEC50 (KB cells [3]; [10]): 6.08

Photofrin [Compound 7]
Activation Wavelength [2]: 630 nm

CC[C@H]1c2cc3[nH]c(c(CC(=O)OC)c4nc(cc5[nH]c(cc(n2)[C@@H]1C)c(C(C)=O)c5C)[C@@H](C)[C@@H]4CCC(=O)NCCC[C@H](NC(=O)CC[P+](c1ccccc1)(c1ccccc1)c1ccccc1)C(=O)OC(C)(C)C)c(C(=O)N[N+](C)(C)C)c3C [Compound 15]
pEC50 (KB cells [8]): 7.32

CC[C@H]1c2cc3[nH]c4c(c3C)C(=O)C(C(=O)OC)c4c3nc(cc4[nH]c(cc(n2)[C@@H]1C)c(C(C)=O)c4C)[C@@H](C)[C@@H]3CCC(=O)NC(CC(=O)NC1C(O)OC(CO)C(O)C1O)C(=O)NNC(=O)OCCSSC[C@H](NC(=O)[C@H](CC(=O)NCCS(=O)(=O)O)NC(=O)CC[C@H](NC(=O)c1ccc(NCc2cnc3nc(N)[nH]c(=O)c3n2)cc1)C(=O)O)C(=O)O (stereo partly drawn) [Compound 92a]
Effect on growth of subcutaneous KB tumor, in words (subcutaneous KB tumor [1]; [9]): completely reduced the tumor
Activity class on KB cancer cells in culture (active / highly active) (KB cells [3]): active
pEC50 (KB cells [3]; 2 h): 7.48

CC[C@@H]1c2cc3[nH]c4c(c3C)C(=O)C(C(=O)OC)c4c3nc(cc4[nH]c(cc(n2)[C@H]1C)c(C(C)=O)c4C)[C@H](C)[C@H]3CCC(=O)NCCC[C@@H](C(=O)NNC(=O)OCCSSC[C@H](NC(=O)[C@H](CC(=O)NCCS(=O)(=O)O)NC(=O)CC[C@H](NC(=O)c1ccc(NCc2cnc3nc(N)[nH]c(=O)c3n2)cc1)C(=O)O)C(=O)O)[N+](C)(C)C (stereo partly drawn) [Compound 89a]
Effect on growth of subcutaneous KB tumor, in words (subcutaneous KB tumor [1]; [9]): completely reduced the tumor
pEC50 (KB cells [3]; 2 h): 8.43

CC[C@H]1c2cc3[nH]c4c(c3C)C(=O)C(C(=O)OC)c4c3nc(cc4[nH]c(cc(n2)[C@@H]1C)c(C(C)=O)c4C)[C@@H](C)[C@@H]3CCC(=O)NC(Cc1ccc(N(CCCl)CCCl)cc1)C(=O)NNC(=O)OCCSSC[C@H](NC(=O)[C@H](CC(=O)NCCS(=O)(=O)O)NC(=O)CC[C@H](NC(=O)c1ccc(NCc2cnc3nc(N)[nH]c(=O)c3n2)cc1)C(=O)O)C(=O)O (stereo partly drawn) [Compound 112a]
Fluorescence in the tumor (level or comparison with other conjugates) (KB tumors; [11]): more highly fluorescent
Tumor specificity / uptake in other tissues (whole body images) (KB tumors; [11]): highly specific for FR-positive tumors
Localization in whole body images (KB tumors; 10 nmol, image 2 h after administering): localized mainly in the tumor
pEC50 (KB cells [3]; Table 12, folate-targeted releasable BPheid-a, miscellaneous): 9.30

From US12144874B2, “Synthesis and composition of photodynamic therapeutic agents for the targeted treatment of cancer” (On Target Laboratories, LLC, priority 2015, dated 2024)
